Measurements published in patent US20080311126A1, “Antisense Oligonucleotides Directed to Ribonucleotide Reducatase R2 and Uses Thereof in Combination Therapies for the Treatment of Cancer” (Genesense Technologies, Inc, priority 2004, published 2008).
Oligonucleotides are written 5' to 3', each unit as a sugar letter and its base; * is a phosphorothioate linkage, no mark a phosphodiester; rarer units and linkages stand in square brackets, end groups in braces. Plain capitals give the bases only. d = 2'-deoxy (DNA)

Assays:
Assay type in all cases: cell-based, human
Hela S3 cells = assay: Relative colony forming efficiency, lipofectin +/- oligonucleotide 4 hours; conditions: Hela S3 cervix carcinoma cells; averages of 2-8 determinations
Method in brief: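 Survival is given as percent of lipofectin-treated controls, scored as methylene blue-stained colonies after 7–10 days of regrowth. Beforehand, HeLa S3 cultures received a 4 h lipofectin-mediated pulse of oligonucleotide, normally at 0.2 μM.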

A549 lung cell carcinoma = assay: Relative colony forming efficiency (Example 17, Table 13); conditions: averages of 2-8 determinations
Method in brief: (§1)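 Phosphorothioate antisense oligodeoxynucleotides, at 0.2 μM unless otherwise indicated, were applied with 2.5 μg DOTMA/DOPE (Lipofectin) for 4 h. Colonies stained with methylene blue and scored, with viability sometimes checked by trypan blue exclusion. Values given as % inhibition of colony formation relative to lipofectin-only controls.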

[1] = test system: H596 lung adenosquamous carcinoma cells; assay: as above; conditions: averages of 2-8 determinations
Method in brief: as §1

[2] = test system: HCT116 colon cell carcinoma; assay: as above; conditions: averages of 2-8 determinations
Method in brief: as §1

[3] = test system: HepG2 hepatocellular carcinoma; assay: as above; conditions: averages of 2-8 determinations
Method in brief: as §1

[4] = test system: MDA PaCa-2 pancreatic cell carcinoma; assay: as above; conditions: MIA PaCa-2 pancreatic cell carcinoma; averages of 2-8 determinations
Method in brief: as §1

[5] = test system: MDA-MB-231 breast cell adenocarcinoma; assay: as above; conditions: averages of 2-8 determinations
Method in brief: as §1

[6] = test system: PC-3 prostrate cell adenocarcinoma; assay: as above; conditions: averages of 2-8 determinations
Method in brief: as §1

[7] = test system: T-47D breast ductal carcinoma; assay: as above; conditions: averages of 2-8 determinations
Method in brief: as §1

[8] = test system: T24 bladder cell carcinoma; assay: as above; conditions: averages of 2-8 determinations
Method in brief: as §1

| Substance | Reduced relative colony forming efficiency, Hela S3 (% inhibition of colony forming ability) (Hela S3 cells) [%] | Reduced relative colony forming efficiency, A549 (% inhibition of colony forming ability) (A549 lung cell carcinoma) [%] | Reduced relative colony forming efficiency, 11596 (% inhibition of colony forming ability) [1] [%] | Reduced relative colony forming efficiency, HCT116 (% inhibition of colony forming ability) [2] [%] | Reduced relative colony forming efficiency, HepG2 (% inhibition of colony forming ability) [3] [%] | Reduced relative colony forming efficiency, MIA PaCa-2 (% inhibition of colony forming ability) [4] [%] | Reduced relative colony forming efficiency, MDA-MB-231 (% inhibition of colony forming ability) [5] [%] | Reduced relative colony forming efficiency, PC-3 (% inhibition of colony forming ability) [6] [%] | Reduced relative colony forming efficiency, T-47D (% inhibition of colony forming ability) [7] [%] | Reduced relative colony forming efficiency, T24 (% inhibition of colony forming ability) [8] [%] |
| --- | --- | --- | --- | --- | --- | --- | --- | --- | --- | --- |
| AGGACTGGTTGTGAGGTAGC (antisense dA*dG*dG*dA*dC*dT*dG*dG*dT*dT*dG*dT*dG*dA*dG*dG*dT*dA*dG*dC) [AS-II-1499-20] | 87.56 | 87.8 | 78.3 | 83.01 | 77.5 | 81.17 | 41.26 | 77.28 | 96.67 | 82.81 |
| CCCCTTCAGCGGCG (antisense dC*dC*dC*dC*dT*dT*dC*dA*dG*dC*dG*dG*dC*dG) [AS-II-253-14] | 65.18 | 61.62 | 0.81 | 53.28 | 42 |  |  | 67.26 | 27.09 | 19.41 |
| C*CCC*TCAC*TCC*AGC*AGC*CT*T (antisense dC*dCdCdC*dTdCdAdC*dTdCdC*dAdGdC*dAdGdC*dCdT*dT) [AS-II-109-20] | 46.83 | 15.14 | 7.28 | 6.76 | 18.08 | 54.24 | 22.38 | 61.51 | 20.63 | 24.89 |
| CCTGTCTTCTATCTGGCACC (antisense dC*dC*dT*dG*dT*dC*dT*dT*dC*dT*dA*dT*dC*dT*dG*dG*dC*dA*dC*dC) [AS-II-1989-20] | 61.41 | 83.9 | 56.33 | 78.47 | 80.7 | 70.22 | 54.9 | 77.38 | 90.83 | 77.43 |
| G*CC*TCCG*ACC*CTTC*CC*ATT*G (antisense dG*dCdC*dTdCdCdG*dAdCdC*dCdTdTdC*dCdC*dAdTdT*dG) [AS-II-13-20] | 19.85 | 32.3 | 19.63 | 6.95 | 24.11 |  | 45.45 | 52.38 | 15.33 | 18.99 |
| GGGAGAGCATAGTGGAGGCG (antisense dG*dG*dG*dA*dG*dA*dG*dC*dA*dT*dA*dG*dT*dG*dG*dA*dG*dG*dC*dG) [AS-II-185-20] | 19.38 | 71.51 | 24.53 |  | 53.44 | 29.32 | 17.4 | 4.37 | 94.52 | 21.94 |
| TGCCTCCGACCCTTCCCA (antisense dT*dG*dC*dC*dT*dC*dC*dG*dA*dC*dC*dC*dT*dT*dC*dC*dC*dA) [AS-II-16-18] | 68.7 | 81.1 | 34.5 | 78.57 | 75.89 |  | 62.59 | 89.48 | 7.13 | 25.74 |
| GCGAGCGGGACACGGAGGGA (antisense dG*dC*dG*dA*dG*dC*dG*dG*dG*dA*dC*dA*dC*dG*dG*dA*dG*dG*dG*dA) [AS-II-201-20] | 90.87 | 90.55 | 49.6 | 45.56 | 59.32 |  | 25.17 | 65.08 | 98.53 | 96.2 |
| CGGCGGCGTGTT (antisense dC*dG*dG*dC*dG*dG*dC*dG*dT*dG*dT*dT) [AS-II-288-12] | 57.63 | 70.49 | 12.67 | 67.57 | 65.89 | 30.09 | 52.1 | 74.01 |  | 30.38 |
